# Where two headings read alike, the source gives them in different places.
# What was measured:
# GCN2 kinase = GCN2 kinase (Homo sapiens, UniProt Q9P2K8); assay: GCN2 enzyme inhibition assay (Transcreener ADP2 fluorescence polarization); type: biochemical; settings: 280 μM ATP
# How it was run: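 4 nM GCN2 + 200 μM (RS)7 + compound (0–8 μM), 10 min preinc.; start with ATP (280 μM final); 1 h, 25 °C; pH 7.5 Tris/NaCl/MgCl2/DTT; ADP FP readout; IC50, Ki(app) via tight-binding fit.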
# [1] = biological target: intracellular GCN2 (phosphorylation of the GCN2 substrate eIF2α) (Homo sapiens, UniProt Q9P2K8); assay: GCN2 cellular inhibition assay (AlphaScreen SureFire P-eIF2α Ser51, borrelidin-treated U2OS cells); type: cell-based
# How it was run: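 Read-out: AlphaScreen SureFire phospho-eIF2α (Ser51) signal in U2OS lysates. Cells get 4-fold compound dilutions (top 40 μM final) plus 10 μM borrelidin, 1 h, 37 °C. Percent inhibition is relative to borrelidin-alone controls.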
# [2] = compounds of Formula II, 4 nM GCN2 kinase
# [3] = compounds of Formula II, biomarker assay, phosphorylated eIF2α Ser51 in borrelidin-treated U2OS cells
# [4] = Enzyme activity for compounds of Formula IV, Ki(app), 25° C.
# [5] = compounds of Formula IV, biomarker assay, phosphorylated eIF2α Ser51 in borrelidin-treated U2OS cells
# Sequence of GCN2 kinase (Q9P2K8 whole entry): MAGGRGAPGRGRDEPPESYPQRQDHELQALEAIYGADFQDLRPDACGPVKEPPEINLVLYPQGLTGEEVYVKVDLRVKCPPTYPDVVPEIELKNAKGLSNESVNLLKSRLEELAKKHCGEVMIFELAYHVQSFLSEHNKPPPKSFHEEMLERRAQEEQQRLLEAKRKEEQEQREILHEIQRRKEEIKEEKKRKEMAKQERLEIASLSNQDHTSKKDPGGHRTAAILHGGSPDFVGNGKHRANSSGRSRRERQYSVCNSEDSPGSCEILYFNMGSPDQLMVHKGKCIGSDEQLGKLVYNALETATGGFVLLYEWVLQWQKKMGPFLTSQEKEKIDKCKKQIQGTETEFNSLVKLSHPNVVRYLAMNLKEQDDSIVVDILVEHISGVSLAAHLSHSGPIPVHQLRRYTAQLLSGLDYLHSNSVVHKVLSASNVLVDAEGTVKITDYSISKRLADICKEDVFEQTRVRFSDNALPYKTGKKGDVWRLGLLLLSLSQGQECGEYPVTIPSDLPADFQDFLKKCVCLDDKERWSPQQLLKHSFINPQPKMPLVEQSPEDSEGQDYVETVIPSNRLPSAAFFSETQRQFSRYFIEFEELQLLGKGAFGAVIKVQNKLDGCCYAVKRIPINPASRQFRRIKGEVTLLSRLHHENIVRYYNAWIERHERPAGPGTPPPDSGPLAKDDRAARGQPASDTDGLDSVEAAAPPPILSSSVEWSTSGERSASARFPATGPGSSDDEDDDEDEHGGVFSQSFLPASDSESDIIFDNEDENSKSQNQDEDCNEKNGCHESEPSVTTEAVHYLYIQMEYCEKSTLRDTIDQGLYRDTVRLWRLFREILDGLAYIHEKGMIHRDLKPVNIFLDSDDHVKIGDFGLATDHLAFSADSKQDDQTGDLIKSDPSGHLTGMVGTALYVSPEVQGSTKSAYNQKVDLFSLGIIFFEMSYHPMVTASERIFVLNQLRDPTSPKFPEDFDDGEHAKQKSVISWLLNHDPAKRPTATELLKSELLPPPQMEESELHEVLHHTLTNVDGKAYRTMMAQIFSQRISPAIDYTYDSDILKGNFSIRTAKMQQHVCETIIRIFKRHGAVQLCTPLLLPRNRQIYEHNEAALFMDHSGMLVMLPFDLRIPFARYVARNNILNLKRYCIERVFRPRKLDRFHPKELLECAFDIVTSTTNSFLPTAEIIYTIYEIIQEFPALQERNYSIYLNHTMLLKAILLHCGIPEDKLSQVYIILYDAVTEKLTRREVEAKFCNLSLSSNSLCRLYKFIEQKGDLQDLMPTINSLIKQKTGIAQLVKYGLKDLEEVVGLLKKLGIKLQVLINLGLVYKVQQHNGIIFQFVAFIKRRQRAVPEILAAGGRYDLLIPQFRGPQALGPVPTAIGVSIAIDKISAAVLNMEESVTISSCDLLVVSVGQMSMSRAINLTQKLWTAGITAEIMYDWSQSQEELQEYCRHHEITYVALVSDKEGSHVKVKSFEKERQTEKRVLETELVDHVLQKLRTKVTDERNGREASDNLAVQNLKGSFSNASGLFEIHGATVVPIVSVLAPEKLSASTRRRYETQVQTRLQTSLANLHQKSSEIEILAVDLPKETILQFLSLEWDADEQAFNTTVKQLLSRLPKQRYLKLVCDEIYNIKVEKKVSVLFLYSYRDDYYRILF
# Sequence of intracellular GCN2 (phosphorylation of the GCN2 substrate eIF2α) (Q9P2K8 whole entry): as above
SMILES,Ki (GCN2 kinase; [2]) [nM],"IC50 [1, 3] [nM]",Ki (GCN2 kinase; [4]) [nM],"IC50 [1, 5] [nM]",also measured
"CC1CC(CNS(C)(=O)=O)CN(c2cc(-c3cnc4ccc(C(F)F)nn34)ncn2)C1C (centres unmarked) [II-544, N-((1-(6-(6-(Difluoromethyl)imidazo[1,2-b]pyridazin-3-yl)pyrimidin-4-yl)-5,6-dimethylpiperidin-3-yl)methyl)methanesulfonamide]",< 10,< 500,,,
"CS(=O)(=O)NCC1CCCN(c2cc(-c3cnc4ccc(C(F)F)nn34)cnc2CN)C1 (centres unmarked) [II-73, N-((1-(2-(Aminomethyl)-5-(6-(difluoromethyl)imidazo[1,2-b]pyridazin-3-yl)pyridin-3-yl)piperidin-3-yl)methyl)methanesulfonamide]",10 to 1000,> 5000,,,
"CC1CN(c2cc(-c3cnc4ccc(C(F)F)nn34)ccn2)CC(CNS(C)(=O)=O)C1(F)F (centres unmarked) [II-58, N-((1-(4-(6-(Difluoromethyl)imidazo[1,2-b]pyridazin-3-yl)pyridin-2-yl)-4,4-difluoro-5-methylpiperidin-3-yl)methyl)methanesulfonamide]",< 10,< 500,,,
"OC1CCCN(c2ccnc(-c3cnc4cnc(C(F)(F)F)cn34)n2)CC1 (centres unmarked) [IV-447, 1-(2-(6-(Trifluoromethyl)imidazo[1,2-a]pyrazin-3-yl)pyrimidin-4-yl)azepan-4-ol]",,,100 to 1000,> 5000,
"CS(=O)(=O)N1CC2(CN(c3cc(-c4cnc5ccc(C(F)F)nn45)ncn3)CCO2)C1 [II-273, 8-(6-(6-(Difluoromethyl)imidazo[1,2-b]pyridazin-3-yl)pyrimidin-4-yl)-2-(methylsulfonyl)-5-oxa-2,8-diazaspiro[3.5]nonane]",10 to 1000,500 to 5000,,,
"CC1CC(F)(F)C(CNS(C)(=O)=O)CN1c1cc(-c2cnc3ccc(C(F)F)nn23)ncn1 (single isomer, unassigned) [II-305, N-((1-(6-(6-(Difluoromethyl)imidazo[1,2-b]pyridazin-3-yl)pyrimidin-4-yl)-4,4-difluoro-6-methylpiperidin-3-yl)methyl)methanesulfonamide]",10 to 1000,> 5000,,,
"OCC1CCCN(c2cc(-c3cnc4ccc(C(F)F)nn34)ccn2)C1 (centres unmarked) [II-162, (1-(4-(6-(Difluoromethyl)imidazo[1,2-b]pyridazin-3-yl)pyridin-2-yl)piperidin-3-yl)methanol]",10 to 1000,500 to 5000,,,
"NS(=O)(=O)C1CCN(c2cc(-c3cnc4ccc(C(F)F)nn34)ncn2)C1 (centres unmarked) [II-192, 1-(6-(6-(Difluoromethyl)imidazo[1,2-b]pyridazin-3-yl)pyrimidin-4-yl)pyrrolidine-3-sulfonamide]",10 to 1000,> 5000,,,
"CC1C(c2cn[nH]c2)NCCN1c1ccnc(-c2cnc3cnc(C(F)(F)F)cn23)n1 (single isomer, unassigned) [IV-357, 3-(4-(2-Methyl-3-(1H-pyrazol-4-yl)piperazin-1-yl)pyrimidin-2-yl)-6-(trifluoromethyl)imidazo[1,2-a]pyrazine]",,,100 to 1000,> 5000,
"CC1(F)CCN(c2cc(-c3cnc4ccc(C(F)F)nn34)ncn2)CC1CNS(C)(=O)=O (single isomer, unassigned) [II-389, N-((1-(6-(6-(Difluoromethyl)imidazo[1,2-b]pyridazin-3-yl)pyrimidin-4-yl)-4-fluoro-4-methylpiperidin-3-yl)methyl)methanesulfonamide]",10 to 1000,500 to 5000,,,
"CNS(=O)(=O)NCC1CN(c2cc(-c3cnc4ccc(C(F)F)nn34)ncn2)CCO1 (centres unmarked) [II-386, 1-((4-(6-(6-(Difluoromethyl)imidazo[1,2-b]pyridazin-3-yl)pyrimidin-4-yl)morpholin-2-yl)methyl)-3-methylsulfuric diamide]",< 10,< 500,,,
"FC(F)(F)c1cn2c(-c3nccc(N4CCO[C@H](c5cn[nH]c5)C4)n3)cnc2s1 (stereo in doubt) [Compound V-3, 2-(1H-Pyrazol-4-yl)-4-(2-(2-(trifluoromethyl)imidazo[2,1-b]thiazol-5-yl)pyrimidin-4-yl)morpholine]",,,,,"Ki (GCN2 kinase; compounds of Formula V, 4 nM GCN2 kinase): < 10 nM; IC50 ([1]; compounds of Formula V, U2OS cells, 10 μM borrelidin, 1 h, read-out: GCN2 Biomarker (IC50)): < 500 nM"
"Cc1cc(C2CCCN(c3ccnc(-c4cnc5cnc(C(F)F)cn45)n3)C2)n[nH]1 (centres unmarked) [IV-112, 6-(Difluoromethyl)-3-(4-(3-(5-methyl-1H-pyrazol-3-yl)piperidin-1-yl)pyrimidin-2-yl)imidazo[1,2-a]pyrazine]",,,100 to 1000,> 5000,
"CC1CN(c2cc(Cl)nc(-c3cnc4cnc(C(F)(F)F)cn34)n2)C(C)C(c2cn[nH]c2)N1 (centres unmarked) [IV-567, 3-(4-Chloro-6-(2,5-dimethyl-3-(1H-pyrazol-4-yl)piperazin-1-yl)pyrimidin-2-yl)-6-(trifluoromethyl)imidazo[1,2-a]pyrazine]",,,10 to 100,500 to 5000,
"NS(=O)(=O)N1CC2(CCCN(c3cc(-c4cnc5ccc(C(F)F)nn45)ncn3)C2)C1 [II-333, 6-(6-(6-(Difluoromethyl)imidazo[1,2-b]pyridazin-3-yl)pyrimidin-4-yl)-2,6-diazaspiro[3.5]nonane-2-sulfonamide]",10 to 1000,500 to 5000,,,
"CC(C)(O)C1CC(c2cn[nH]c2)CN(c2ccnc(-c3cnc4cnc(C(F)(F)F)cn34)n2)C1 (single isomer, unassigned) [IV-685, 2-(5-(1H-Pyrazol-4-yl)-1-(2-(6-(trifluoromethyl)imidazo[1,2-a]pyrazin-3-yl)pyrimidin-4-yl)piperidin-3-yl)propan-2-ol]",,,< 10,< 500,
"CC1C(c2cn[nH]c2)NCCN1c1ccnc(-c2cnc3cnc(Br)cn23)n1 (single isomer, unassigned) [IV-350, 6-Bromo-3-(4-(2-methyl-3-(1H-pyrazol-4-yl)piperazin-1-yl)pyrimidin-2-yl)imidazo[1,2-a]pyrazine]",,,100 to 1000,500 to 5000,
"CS(=O)(=O)CC1CCCN(c2cc(-c3cnc4ccc(C(F)F)nn34)ncn2)C1 (centres unmarked) [II-430, 6-(Difluoromethyl)-3-(6-(3-((methylsulfonyl)methyl)piperidin-1-yl)pyrimidin-4-yl)imidazo[1,2-b]pyridazine]",10 to 1000,500 to 5000,,,
"CC1CN(c2cc(-c3cnc4ccc(C(F)F)nn34)ncn2)CC(CNS(C)(=O)=O)O1 (centres unmarked) [II-33, N-((4-(6-(6-(Difluoromethyl)imidazo[1,2-b]pyridazin-3-yl)pyrimidin-4-yl)-6-methylmorpholin-2-yl)methyl)methanesulfonamide]",< 10,< 500,,,
"Cc1n[nH]cc1C1CCCN(c2ccnc(-c3cnc4cnc(C(F)F)cn34)n2)C1 (single isomer, unassigned) [IV-469, 6-(Difluoromethyl)-3-(4-(3-(3-methyl-1H-pyrazol-4-yl)piperidin-1-yl)pyrimidin-2-yl)imidazo[1,2-a]pyrazine]",,,10 to 100,> 5000,
"Clc1ccc2ncc(-c3ccnc(-c4ccccc4)c3)n2n1 [II-27, 6-Chloro-3-(2-phenylpyridin-4-yl)imidazo[1,2-b]pyridazine]",10 to 1000,> 5000,,,
"CC1C(c2cn[nH]c2)CCCN1c1ccnc(-c2cnc3cnc(C(F)(F)F)cn23)n1 (centres unmarked) [IV-388, 3-(4-(2-Methyl-3-(1H-pyrazol-4-yl)piperidin-1-yl)pyrimidin-2-yl)-6-(trifluoromethyl)imidazo[1,2-a]pyrazine]",,,< 10,< 500,
"CC1C(c2cn[nH]c2)CCCN1c1ccnc(-c2cnc3cnc(C(F)(F)F)cn23)n1 (single isomer, unassigned) [IV-419, 3-(4-(2-Methyl-3-(1H-pyrazol-4-yl)piperidin-1-yl)pyrimidin-2-yl)-6-(trifluoromethyl)imidazo[1,2-a]pyrazine]",,,100 to 1000,500 to 5000,
"FC(F)(F)c1cn2c(-c3nccc(N4CCC5(CC4)CNC5)n3)cnc2cn1 [IV-692, 3-(4-(2,7-Diazaspiro[3.5]nonan-7-yl)pyrimidin-2-yl)-6-(trifluoromethyl)imidazo[1,2-a]pyrazine]",,,100 to 1000,> 5000,
"CC1C(CNS(C)(=O)=O)C(F)(F)C(C)CN1c1cc(-c2cnc3ccc(C(F)F)nn23)ncn1 (centres unmarked) [II-462, N-((1-(6-(6-(Difluoromethyl)imidazo[1,2-b]pyridazin-3-yl)pyrimidin-4-yl)-4,4-difluoro-2,5-dimethylpiperidin-3-yl)methyl)methanesulfonamide]",< 10,< 500,,,
"Cc1n[nH]cc1[C@@H]1C[C@H](O)CN(c2ccnc(-c3cnc4cnc(C(F)(F)F)cn34)n2)C1 [IV-777, (3S,5S)-5-(3-methyl-1H-pyrazol-4-yl)-1-(2-(6-(trifluoromethyl)imidazo[1,2-a]pyrazin-3-yl)pyrimidin-4-yl)piperidin-3-ol]",,,,500 to 5000,"IC50 (GCN2 kinase; compounds of Formula IV, 4 nM GCN2 kinase): 10 to 1000 nM"
"Cc1cc(N2CCC(c3cn[nH]c3)C2)nc(-c2cnc3cnc(C(F)(F)F)cn23)n1 (centres unmarked) [IV-668, 3-(4-(3-(1H-Pyrazol-4-yl)pyrrolidin-1-yl)-6-methylpyrimidin-2-yl)-6-(trifluoromethyl)imidazo[1,2-a]pyrazine]",,,10 to 100,500 to 5000,
"CC1C(CNS(C)(=O)=O)CCCN1c1cc(-c2cnc3ccc(C(F)F)nn23)ncn1 (single isomer, unassigned) [II-266, N-((1-(6-(6-(Difluoromethyl)imidazo[1,2-b]pyridazin-3-yl)pyrimidin-4-yl)-2-methylpiperidin-3-yl)methyl)methanesulfonamide]",< 10,< 500,,,

# Source: patent US10988477B2 (Merck Patent GmbH, priority 2018, dated 2021)
